In PubChem BioAssay (NCI):
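Briefly, cells in 96-well plates were exposed to five compound concentrations for 48 h, and endpoints were estimated by linear interpolation. TGI: total growth inhibition.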

Tests used:
Experiment in all cases: DTP human tumour cell line panel, 48 h
786-0 renal = tested on: 786-0 renal
A498 renal = tested on: A498 renal
A549 NSCLC = tested on: A549 NSCLC
ACHN renal = tested on: ACHN renal
BT-549 breast = tested on: BT-549 breast
CAKI-1 renal = tested on: CAKI-1 renal
CCRF-CEM leukemia = tested on: CCRF-CEM leukemia
COLO 205 colon = tested on: COLO 205 colon
DU-145 prostate = tested on: DU-145 prostate
EKVX NSCLC = tested on: EKVX NSCLC
HCC-2998 colon = tested on: HCC-2998 colon
HCT-116 colon = tested on: HCT-116 colon
HCT-15 colon = tested on: HCT-15 colon
HL-60(TB) leukemia = tested on: HL-60(TB) leukemia
HOP-62 NSCLC = tested on: HOP-62 NSCLC
HOP-92 NSCLC = tested on: HOP-92 NSCLC
HS 578T breast = tested on: HS 578T breast
HT29 colon = tested on: HT29 colon
IGROV1 ovarian = tested on: IGROV1 ovarian
K-562 leukemia = tested on: K-562 leukemia
KM12 colon = tested on: KM12 colon
LOX IMVI melanoma = tested on: LOX IMVI melanoma
M14 melanoma = tested on: M14 melanoma
MALME-3M melanoma = tested on: MALME-3M melanoma
MCF7 breast = tested on: MCF7 breast
MDA-MB-231 breast = tested on: MDA-MB-231 breast
MDA-MB-435 = tested on: MDA-MB-435
MDA-N = tested on: MDA-N
MOLT-4 leukemia = tested on: MOLT-4 leukemia
NCI-H226 lung = tested on: NCI-H226 lung
NCI-H23 lung = tested on: NCI-H23 lung
NCI-H460 lung = tested on: NCI-H460 lung
NCI-H522 lung = tested on: NCI-H522 lung
NCI/ADR-RES ovarian = tested on: NCI/ADR-RES ovarian
OVCAR-3 ovarian = tested on: OVCAR-3 ovarian
OVCAR-4 ovarian = tested on: OVCAR-4 ovarian
OVCAR-5 ovarian = tested on: OVCAR-5 ovarian
OVCAR-8 ovarian = tested on: OVCAR-8 ovarian
PC-3 prostate = tested on: PC-3 prostate
RPMI-8226 leukemia = tested on: RPMI-8226 leukemia
RXF 393 renal = tested on: RXF 393 renal
SF-268 CNS = tested on: SF-268 CNS
SF-295 CNS = tested on: SF-295 CNS
SF-539 CNS = tested on: SF-539 CNS
SK-MEL-2 melanoma = tested on: SK-MEL-2 melanoma
SK-MEL-28 melanoma = tested on: SK-MEL-28 melanoma
SK-MEL-5 melanoma = tested on: SK-MEL-5 melanoma
SK-OV-3 ovarian = tested on: SK-OV-3 ovarian
SN12C renal = tested on: SN12C renal
SNB-19 CNS = tested on: SNB-19 CNS
SNB-75 CNS = tested on: SNB-75 CNS
SR leukemia = tested on: SR leukemia
SW-620 colon = tested on: SW-620 colon
T-47D breast = tested on: T-47D breast
TK-10 renal = tested on: TK-10 renal
U251 CNS = tested on: U251 CNS
UACC-257 melanoma = tested on: UACC-257 melanoma
UACC-62 melanoma = tested on: UACC-62 melanoma
UO-31 renal = tested on: UO-31 renal

## C[N+](C)(C)CCOP(=O)(O)OP(=O)([O-])OCC1CCC(n2ccc(N)nc2=O)O1 (configuration not stated)
786-0 renal
  TGI: > 100 µM
A498 renal
  TGI: > 100 µM
A549 NSCLC
  TGI: > 100 µM
ACHN renal
  TGI: > 100 µM
BT-549 breast
  TGI: > 100 µM
CAKI-1 renal
  TGI: > 100 µM
CCRF-CEM leukemia
  TGI: > 100 µM
COLO 205 colon
  TGI: > 100 µM
DU-145 prostate
  TGI: > 100 µM
EKVX NSCLC
  TGI: > 100 µM
HCC-2998 colon
  TGI: > 100 µM
HCT-116 colon
  TGI: > 100 µM
HCT-15 colon
  TGI: > 100 µM
HL-60(TB) leukemia
  TGI: > 100 µM
HOP-62 NSCLC
  TGI: > 100 µM
HOP-92 NSCLC
  TGI: > 100 µM
HS 578T breast
  TGI: > 100 µM
HT29 colon
  TGI: > 100 µM
IGROV1 ovarian
  TGI: > 100 µM
K-562 leukemia
  TGI: > 100 µM
KM12 colon
  TGI: > 100 µM
LOX IMVI melanoma
  TGI: > 100 µM
M14 melanoma
  TGI: > 100 µM
MALME-3M melanoma
  TGI: > 100 µM
MCF7 breast
  TGI: > 100 µM
MDA-MB-231 breast
  TGI: > 100 µM
MDA-MB-435
  TGI: > 100 µM
MDA-N
  TGI: > 100 µM
MOLT-4 leukemia
  TGI: > 100 µM
NCI-H226 lung
  TGI: > 100 µM
NCI-H23 lung
  TGI: > 100 µM
NCI-H460 lung
  TGI: > 100 µM
NCI-H522 lung
  TGI: > 100 µM
NCI/ADR-RES ovarian
  TGI: > 100 µM
OVCAR-3 ovarian
  TGI: > 100 µM
OVCAR-4 ovarian
  TGI: > 100 µM
OVCAR-5 ovarian
  TGI: > 100 µM
OVCAR-8 ovarian
  TGI: > 100 µM
PC-3 prostate
  TGI: > 100 µM
RPMI-8226 leukemia
  TGI: > 100 µM
RXF 393 renal
  TGI: > 100 µM
SF-268 CNS
  TGI: > 100 µM
SF-295 CNS
  TGI: > 100 µM
SF-539 CNS
  TGI: > 100 µM
SK-MEL-2 melanoma
  TGI: > 100 µM
SK-MEL-28 melanoma
  TGI: > 100 µM
SK-MEL-5 melanoma
  TGI: > 100 µM
SK-OV-3 ovarian
  TGI: > 100 µM
SN12C renal
  TGI: > 100 µM
SNB-19 CNS
  TGI: > 100 µM
SNB-75 CNS
  TGI: > 100 µM
SR leukemia
  TGI: > 100 µM
SW-620 colon
  TGI: > 100 µM
T-47D breast
  TGI: > 100 µM
TK-10 renal
  TGI: > 100 µM
U251 CNS
  TGI: > 100 µM
UACC-257 melanoma
  TGI: > 100 µM
UACC-62 melanoma
  TGI: > 100 µM
UO-31 renal
  TGI: > 100 µM

## Cc1ccnc(NS(=O)(=O)c2ccc(NC(=O)c3ccc4nc5ccccc5c(Nc5ccc(S(=O)(=O)Nc6nccc(C)n6)cc5)c4c3)cc2)n1
786-0 renal
  TGI: > 100 µM
A549 NSCLC
  TGI: > 100 µM
ACHN renal
  TGI: > 100 µM
BT-549 breast
  TGI: 32.6 µM
CAKI-1 renal
  TGI: > 100 µM
CCRF-CEM leukemia
  TGI: > 100 µM
COLO 205 colon
  TGI: > 100 µM
DU-145 prostate
  TGI: > 100 µM
EKVX NSCLC
  TGI: > 100 µM
HCC-2998 colon
  TGI: > 100 µM
HCT-116 colon
  TGI: > 100 µM
HCT-15 colon
  TGI: > 100 µM
HL-60(TB) leukemia
  TGI: > 100 µM
HOP-62 NSCLC
  TGI: > 100 µM
HOP-92 NSCLC
  TGI: 55.4 µM
HS 578T breast
  TGI: > 100 µM
HT29 colon
  TGI: > 100 µM
IGROV1 ovarian
  TGI: > 100 µM
K-562 leukemia
  TGI: > 100 µM
KM12 colon
  TGI: > 100 µM
LOX IMVI melanoma
  TGI: > 100 µM
M14 melanoma
  TGI: > 100 µM
MALME-3M melanoma
  TGI: > 100 µM
MCF7 breast
  TGI: 75.1 µM
MDA-MB-231 breast
  TGI: > 100 µM
MDA-MB-435
  TGI: > 100 µM
MDA-N
  TGI: > 100 µM
MOLT-4 leukemia
  TGI: > 100 µM
NCI-H226 lung
  TGI: > 100 µM
NCI-H23 lung
  TGI: > 100 µM
NCI-H460 lung
  TGI: > 100 µM
NCI-H522 lung
  TGI: 87.4 µM
NCI/ADR-RES ovarian
  TGI: > 100 µM
OVCAR-3 ovarian
  TGI: 95.6 µM
OVCAR-4 ovarian
  TGI: > 100 µM
OVCAR-5 ovarian
  TGI: > 100 µM
OVCAR-8 ovarian
  TGI: > 100 µM
PC-3 prostate
  TGI: > 100 µM
RPMI-8226 leukemia
  TGI: > 100 µM
RXF 393 renal
  TGI: 51.2 µM
SF-268 CNS
  TGI: > 100 µM
SF-295 CNS
  TGI: > 100 µM
SF-539 CNS
  TGI: > 100 µM
SK-MEL-2 melanoma
  TGI: 39.5 µM
SK-MEL-28 melanoma
  TGI: > 100 µM
SK-MEL-5 melanoma
  TGI: > 100 µM
SK-OV-3 ovarian
  TGI: > 100 µM
SN12C renal
  TGI: > 100 µM
SNB-19 CNS
  TGI: > 100 µM
SNB-75 CNS
  TGI: > 100 µM
SR leukemia
  TGI: 55.6 µM
SW-620 colon
  TGI: > 100 µM
T-47D breast
  TGI: > 100 µM
TK-10 renal
  TGI: > 100 µM
U251 CNS
  TGI: 41.7 µM
UACC-257 melanoma
  TGI: > 100 µM
UACC-62 melanoma
  TGI: > 100 µM
UO-31 renal
  TGI: > 100 µM
